Measured values reported in article PMC6926962, “Pentafluorophenyl Platinum(II) Complexes of PTA and Its N-Allyl and N-Benzyl Derivatives: Synthesis, Characterization and Biological Activity” (Materials, 2019).
Like-named read-outs stand apart in the source and are kept apart here.

Legend:
[1] = test system: NHDF (normal human dermal fibroblasts); parameters: method as in PMID 31237306; settings: nd = not detectable, read-out: Half maximal inhibitory concentration (IC50); cited from earlier work
[2] = molecular target: T1, human serum albumin (HSA) (Homo sapiens, UniProt P02768); settings: under the same conditions; cited from earlier work
T1 construct: High purity free-HSA (>96%, Sigma-Aldrich, Steinheim, North Rhine-Westphalia, Germany) was used as purchased; purchased Sigma-Aldrich

[3] = test system: HeLa (human cervix carcinoma); parameters: method as in PMID 31237306; settings: nd = not detectable, read-out: Half maximal inhibitory concentration (IC50); cited from earlier work
[4] = test system: MCF7 (human breast adenocarcinoma); parameters: method as in PMID 31237306; settings: nd = not detectable, read-out: Half maximal inhibitory concentration (IC50); cited from earlier work
[5] = test system: A549 (human lung carcinoma); parameters: method as in PMID 31237306; settings: nd = not detectable, read-out: Half maximal inhibitory concentration (IC50); cited from earlier work
[6] = test system: NHDF (normal human dermal fibroblasts); experiment: MTT cell viability assay, NHDF; format: cell-based; settings: 72 h incubation, read-out: Half maximal inhibitory concentration (IC50)
Procedure: (§1) NHDF (normal human dermal fibroblasts; PromoCell, C-12302), A549 (human lung carcinoma; ATCC, No CCL-185 ^TM), HeLa (human cervix carcinoma; ATCC, No CCL-2 ^TM) and MCF7 (human breast adenocarcinoma; ATCC, No HTB-22 ^TM) were used. NHDF, A549, HeLa and MCF7 cell lines were cultured in DMEM (Lonza, Basel, Switzerland). Media were supplemented with 10% FBS (Biological Industries, Kibbutz Beit-Haemek, Israel), 4 mM L-glutamine (Biological Industries, Kibbutz Beit-Haemek, Israel), 100 U/mL of penicillin and 100 µg/mL of streptomycin (Sigma, Steinheim, North Rhine-Westphalia, Germany).
(§2) All cell cultures were inserted in a 96-well plate (Eppendorf, Freie und Hansestadt Hamburg, Germany) in a concentration of 10^5 cells per well.
(§3) Compounds 2a–c and ligands 1a–c were dissolved in distilled water and diluted to afford concentrations of 30, 3, 0.3 and 0.03 μg/mL in DMEM and incubated in standard conditions for 72 h, after which the MTT (Sigma, Steinheim, North Rhine-Westphalia, Germany) assay was carried out. 20 µL of MTT (5 mg/mL) was added to each well, incubation for 4 h at 37 °C was implemented, and then 80 µL of lysis buffer was added. The test consists in the enzymatic reduction of the tetrazolium salt MTT in metabolically active cells. The metabolite, purple-colored formazan is measured colorimetrically, using a multiwell plate reader. The optical density (OD) was measured using a spectrophotometric microplate reader (Multiscan Go, Thermo Fisher, Waltham, MA, USA) at 570 nm with reference wavelength of 630 nm. The viability of the investigated cell cultures was estimated using following formula: viability% = (average OD for test group/average OD for control group) × 100. The untreated cells were used as a control group.

[7] = test system: HeLa (human cervix carcinoma); experiment: MTT cell viability assay, HeLa; format: cell-based; settings: 72 h incubation, read-out: Half maximal inhibitory concentration (IC50)
Procedure: as §1, §2, §3

[8] = test system: MCF7 (human breast adenocarcinoma); experiment: MTT cell viability assay, MCF7; format: cell-based; settings: MCF7, 72 h incubation, read-out: Half maximal inhibitory concentration (IC50)
Procedure: as §1, §2, §3

[9] = test system: A549 (human lung carcinoma); experiment: MTT cell viability assay, A549; format: cell-based; settings: A549, 72 h incubation, read-out: Half maximal inhibitory concentration (IC50)
Procedure: as §1, §2, §3

[10] = molecular target: T1, human serum albumin (HSA); experiment: HSA interaction, circular dichroism; format: binding; settings: HSA/complex molar ratio 1/10; free HSA 50.88%
Procedure: High purity free-HSA (>96%, Sigma-Aldrich, Steinheim, North Rhine-Westphalia, Germany) was used as purchased. The stock solutions of platinum complexes (200 μM) were freshly prepared in double distilled water prior to their use. The HSA solutions (200 μM) were prepared in PBS (pH 7.40). […] Measurements were done after 24 h incubation at 300, 305 and 310 K. HSA concentration was determined, using A279 (1 mg/mL) as 0.531 [85].
Circular dichroism spectra were recorded on a Jasco J-715 spectropolarimeter, over the range of 190–250 nm in 0.1 cm cuvettes. The α-helical content of HSA was calculated from the molar ellipticity (θ) at 208–210 nm using Equations (1) and (2): (1) MRE209=ObservedCD (mdeg)/Cp·n·l·10, (2) α−helix (%)=MRE209−4000/33000−4000×100, where MRE is the mean residue ellipticity, Cp is the molar concentration of the protein, n is the number of amino acid residues (583) and l is the path-length (0.1 cm).

[11] = Octanol-water partition coefficient determination; format: physicochemical; settings: 24 °C, 10^−3 M in water saturated with octanol
Procedure: The log(P) values corresponding to the octanol–water partition coefficient was adjusted to the solubility properties of the compounds [84]. Complexes were dissolved in water previously saturated with octanol, to achieve concentrations of 10^−3 M. At 24 °C, 25 mL of octanol saturated with water was introduced into a 100 mL flask equipped and then 25 mL of the aqueous complex solutions was added. The two-phase mixture thus obtained was stirred vigorously for 20 min. After separation of the phases and removal of the respective solvents under vacuum, the attained residues were weighed. Values for log(P) of −0.11, −0.71 and −0.40 for 2a, 2b and 2c, respectively, were obtained.

Solubility in water = format: physicochemical; settings: 25 °C
[12] = molecular target: T1, human serum albumin (HSA); experiment: HSA interaction, fluorescence quenching (Trp-214); format: binding; settings: for KSV (Stern-Volmer constant): HSA 10 μM, pH 7.40; for ΔH^0 / ΔS^0: van't Hoff; for maximum blue shift of HSA fluorescence emission: HSA emission max 335 nm, λex 295 nm
Procedure: High purity free-HSA (>96%, Sigma-Aldrich, Steinheim, North Rhine-Westphalia, Germany) was used as purchased. The stock solutions of platinum complexes (200 μM) were freshly prepared in double distilled water prior to their use. The HSA solutions (200 μM) were prepared in PBS (pH 7.40). In the final step, the samples contained (protein):(drug) equal 1:0–1:9 in PBS, where CHSA was 10 μM. Measurements were done after 24 h incubation at 300, 305 and 310 K. HSA concentration was determined, using A279 (1 mg/mL) as 0.531 [85].
Emission fluorescence spectra were recorded using Hitachi F-2700 spectrofluorimeter (Tokio, Japan) in 1.0 cm quartz cells in the 300–400 nm range. Trp-214 fluorescence of HSA was measured at 295 nm. The intensity at 335 nm (Trp-214) was used to achieve the quenching mechanism and calculate the binding constants and thermodynamic parameters according to literature reports.

T1 sequence (P02768 25-609): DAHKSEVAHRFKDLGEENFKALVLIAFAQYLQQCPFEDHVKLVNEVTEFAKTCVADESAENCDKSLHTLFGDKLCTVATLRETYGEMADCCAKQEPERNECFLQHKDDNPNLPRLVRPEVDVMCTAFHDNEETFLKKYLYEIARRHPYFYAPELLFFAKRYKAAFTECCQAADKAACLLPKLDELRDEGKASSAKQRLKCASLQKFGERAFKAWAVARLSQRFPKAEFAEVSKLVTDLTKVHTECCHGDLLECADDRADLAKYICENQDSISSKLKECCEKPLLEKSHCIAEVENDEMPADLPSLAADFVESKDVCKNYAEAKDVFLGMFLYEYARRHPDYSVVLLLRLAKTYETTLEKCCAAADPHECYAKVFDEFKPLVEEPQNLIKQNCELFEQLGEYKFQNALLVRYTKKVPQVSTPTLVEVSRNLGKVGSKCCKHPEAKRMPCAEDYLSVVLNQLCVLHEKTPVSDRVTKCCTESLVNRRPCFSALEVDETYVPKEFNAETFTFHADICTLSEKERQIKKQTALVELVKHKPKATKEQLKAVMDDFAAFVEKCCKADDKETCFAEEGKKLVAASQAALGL

Molecule	IC50 ([6]; Homo sapiens) [µM]	IC50 ([7]; Homo sapiens) [µM]	IC50 ([8]; Homo sapiens) [µM]	IC50 ([9]; Homo sapiens) [µM]	content of α-helix of HSA [10] [%]	log(P) octanol-water partition coefficient [11]	IC50 [6] [µM]	IC50 [7] [µM]	solubility in H2O (S25 °C) (Solubility in water)	IC50 [8] [µM]	KA (association constant) ([12]; 300 K) [M⁻¹]	Kq (quenching rate constant) ([12]; 300 K) [M⁻¹ s⁻¹]	n (number of binding sites) ([12]; 300 K)	ΔG^0 ([12]; 300 K) [kcal/mol]	KSV (Stern-Volmer constant) ([12]; 300 K) [M⁻¹]	ΔH^0 ([12]; 300 K) [kcal/mol]	ΔS^0 ([12]; 300 K) [J mol^−1·K^−1]	KA (association constant) ([12]; 305 K) [M⁻¹]	Kq (quenching rate constant) ([12]; 305 K) [M⁻¹ s⁻¹]	IC50 [9] [µM]	further results
N.N.[Cl][Pt][Cl] [Cisplatin, cisplatin]																					IC50 [1]: 16.6 ± 2.1 µM; binding constant Ka for cisplatin-HSA complex [2]: 852 M⁻¹; IC50 [3]: 16.6 ± 3.1 µM; IC50 [4]: 33.3 ± 4.2 µM; IC50 [5]: 33.3 ± 4.2 µM
C=CC[N+]12CN3CN(CP(C3)C1)C2 [Compound 1b, 1-allyl-1-azonia-3,5-diaza-7-phosphaadamantane]	> 263	65.8 ± 6.6	> 263	> 263																	
c1ccc(C[N+]23CN4CN(CP(C4)C2)C3)cc1 [Compound 1c, 1-benzyl-1-azonia-3,5-diaza-7-phosphaadamantane]	> 224	56 ± 16	72.4 ± 2.4	> 224																	
C=CC[N+]12CN3CN(C1)C[PH]([Pt]([Cl])([c]1c(F)c(F)c(F)c(F)c1F)[PH]14CN5CN(C[N+](CC=C)(C5)C1)C4)(C3)C2.F[B-](F)(F)F.F[B-](F)(F)F [Compound 2b, trans-(PtCl(C6F5)(APTA)2)(BF4)2]					46.29	−0.71	26.9 ± 3.5	29.5 ± 1.3	≈ 4.0 mg mL^−1	> 31	9880	1.77e+12	1.26	-5.43	8850	4.02	131.4	9900	1.96e+12	7.79 ± 1.7	n (number of binding sites) ([12]; 305 K): 0.96; ΔG^0 ([12]; 305 K): -5.57 kcal/mol; KSV (Stern-Volmer constant) ([12]; 305 K): 9780 M⁻¹; ΔH^0 ([12]; 305 K): 4.02 kcal/mol; ΔS^0 ([12]; 305 K): 131.4 J mol^−1·K^−1; KA (association constant) ([12]; 310 K): 11000 M⁻¹; Kq (quenching rate constant) ([12]; 310 K): 2.08e+12 M⁻¹ s⁻¹; n (number of binding sites) ([12]; 310 K): 1.24; KSV (Stern-Volmer constant) ([12]; 310 K): 10400 M⁻¹; maximum blue shift of HSA fluorescence emission [12]: ca. 3 nm
F[B-](F)(F)F.F[B-](F)(F)F.Fc1c(F)c(F)[c]([Pt-3]([Cl])([P+]23CN4CN(C[N+](Cc5ccccc5)(C4)C2)C3)[P+]23CN4CN(C[N+](Cc5ccccc5)(C4)C2)C3)c(F)c1F [Compound 2c, trans-(PtCl(C6F5)(BzPTA)2)(BF4)2]					47.17	−0.40	11.2 ± 3.1	8.89 ± 4.1	≈ 3.0 mg mL^−1	> 28.1	14500	2.72e+12	1.25	-5.71	13600	1.71	103.5	15200	2.96e+12	> 28.1	n (number of binding sites) ([12]; 305 K): 0.99; ΔG^0 ([12]; 305 K): -5.83 kcal/mol; KSV (Stern-Volmer constant) ([12]; 305 K): 14800 M⁻¹; ΔH^0 ([12]; 305 K): 1.71 kcal/mol; ΔS^0 ([12]; 305 K): 103.5 J mol^−1·K^−1; KA (association constant) ([12]; 310 K): 15900 M⁻¹; Kq (quenching rate constant) ([12]; 310 K): 3.24e+12 M⁻¹ s⁻¹; n (number of binding sites) ([12]; 310 K): 1.59; KSV (Stern-Volmer constant) ([12]; 310 K): 16200 M⁻¹; maximum blue shift of HSA fluorescence emission [12]: ~5 nm
trans-(PtCl(C6F5)(PTA)2) [Compound 2a]						−0.11	26.1 ± 0.68	> 42.1	≈ 0.35 mg mL^−1	> 42.1										15.4 ± 5.3	
